Laboratory results as given in US20250179126A1, “A NOVEL PEPTIDE FROM A PHOTOSYNTHETIC BACERIUM DIRECTLY TARGETS MITOCHONDRIA TO TRIGGER APOPTOSIS IN ADVANCED PROSTATE CANCER CELLS” (priority 2022, published 2025).

What was measured:
[1] = test system: PC3 prostate cancer cells; assay: MTT cell viability assay, PC3 prostate cancer cells; type: cell-based, human; conditions: PC3 (p53-null, AR−), 24-72 hr, paclitaxel 1 nM
Experimental: (§1) Cell lines and culture: Human cancer and noncancer (immortalized and nonimmortalized) cell lines were obtained from the American Type Culture Collection [prostate cancer (PC3, DU145 and LNCaP), normal prostate (CRL11611), breast cancer (MCF-7), ovarian cancer (SK-OV3 adenocarcinoma), lung cancer (A549)]. MDD2 breast cancer cells (p53 dominant-negative) were provided courtesy of Dr Andrei V. Gudkov, Roswell Park Cancer Institute. 20 All cell lines were cultured in MEM-E (Invitrogen) supplemented with 10% heat-inactivated fetal bovine serum (Atlanta Biological, Inc.), 100 units/mL penicillin, and 100 μg/mL streptomycin at 37° C. in 5% CO2.

[2] = test system: normal prostate cells CRL11611; assay: MTT cell viability assay, normal prostate CRL11611 cells; type: cell-based, human; conditions: normal prostate CRL11611 (p53+, AR+), 24-72 hr, paclitaxel 1 nM
Text: FIG. 4A-4D: Effect of peptides on prostate cancer cell lines with differences in p53 and AR expression status. […] Control (PBS)-treated cells were considered to have 100% viability. Mean±SE (N=3).
as §1
Cytotoxicity assay: The MTT assay was performed as we previously described (Cha et al., Cancer Research 2020, 80: 1615-1623).

PC3 xenograft tumors = assay: PC3 xenograft animal model; type: in vivo, athymic mice; conditions: end of treatment, four weeks i.p.; aurB 5 mg/kg daily, Ptxl 10 mg/kg once a week
Text: FIG. 10A-10D: Inhibition of PC3 xenograft tumor growth. 10A, When the s.c. tumors reached ˜5 mm, athymic mice were randomized into control (PBS) and i.p. treatment groups. Mean±SE (N=5). *P<0.01. […] 10C, At the end of treatment, tumors were dissected and weighed. * P<0.01. 10D, In sections of tumors from the control group, there was a marked increase in Ki-67-positive proliferating cells (stained brown and counterstained with haematoxylin, ×40), and only a few apoptotic cells were observed, as determined by TUNEL and caspase-3 (Casp-3) staining. There was an apparent sharp reduction in Ki-67-positive proliferating cells and a higher number of TUNEL-positive apoptotic cells in the aurB-treated group compared to the control group. Similarly, Casp-3 expression in aurB-treated tumors was increased markedly compared with that in untreated controls.
Xenograft animal model: Human prostate cancer cells (PC3) were injected s.c. into the right flanks of 5- to 6-week-old male athymic mice 78. When tumors reached 5 mm in diameter, animals were randomized into control and treatment groups. […] All animals were weighed twice a week. At necropsy, tumors were dissected and weighed. Statistical comparisons were performed by one-way analysis of variance (ANOVA) (control vs treatment). Tumor samples were fixed overnight in 10% buffered formalin. Fixation was followed by dehydration, clearing and infiltration. Samples were then embedded in paraffin, and 4 μm sections were cut on a microtome. Ki67 (LabVision) staining was performed on the tissue sections using a Vector Vectastain Elite ABC Kit. The TUNEL assay was performed on the sections using a Millipore Sigma ApopTag® Peroxidase In Situ Apoptosis Detection Kit.

[3] = test system: LNCaP prostate cancer cells; assay: MTT cell viability assay, LNCaP prostate cancer cells; type: cell-based, human; conditions: LNCaP (p53 wild-type, AR+), 24-72 hr; paclitaxel 1 nM
Experimental: as §1

[4] = test system: normal prostate CRL11611 cells; assay: Annexin-V apoptosis assay by flow cytometry, normal prostate CRL11611; type: cell-based, human; conditions: normal CRL11611, 48 hr; Ptxl 1 nM, p28 50 μM, aurA/aurB 0.5-50 μM
Experimental: (§2) FIG. 7A-7D: Determination of apoptotic cell death. Prostate cancer cell lines (7A: LNCaP, 7B: DU145 and 7C: PC3) and normal prostate CRL11611 cells (7D) were exposed to the indicated agents for 48 hr and stained using apoptosis assay kits according to the manufacturer's instructions. The samples were analyzed by flow cytometry. Mean±SE (N=3).
(§3) After 48 hr, annexin-V apoptosis assays (Thermo Fisher Scientific) were conducted to detect apoptotic cells. At least 10,000 cells in each case were analyzed by FACS (RRC, UIC).

DU145 cells = assay: Annexin-V apoptosis assay by flow cytometry, DU145; type: cell-based, human; conditions: DU145, 48 hr; Ptxl 1 nM, p28 50 μM, aurA/aurB 0.5-50 μM
Experimental: as §2, §3

PC3 cells = assay: Annexin-V apoptosis assay by flow cytometry, PC3; type: cell-based, human; conditions: PC3, 48 hr; Ptxl 1 nM, p28 50 μM, aurA/aurB 0.5-50 μM
Experimental: as §2, §3

[5] = test system: DU145 prostate cancer cells; assay: MTT cell viability assay, DU145 prostate cancer cells; type: cell-based, human; conditions: DU145 (p53-mutant, AR−), 24-72 hr, paclitaxel 1 nM
Text: Cell viability was detected by MTT assays, and the control (PBS-treated) cells were considered 100% viable. Mean±SE (N=3). *P<0.05, **P<0.01, ***P<0.001.
as §1

LNCaP cells = assay: Annexin-V apoptosis assay by flow cytometry, LNCaP; type: cell-based, human; conditions: 48 hr, Ptxl 1 nM, p28 50 μM, aurA/aurB 0.5-50 μM
Experimental: as §2, §3

SMILES	cytotoxic effect (MTT cell viability) [1]	cytotoxic effect (MTT cell viability) ([1]; listed as Ptxl)	cytotoxic effect (MTT cell viability) [2]	cytotoxic effect (MTT cell viability) ([2]; listed as Ptxl)	tumor growth inhibition vs PBS control (PC3 xenograft tumors)	cytotoxic effect (MTT cell viability) [3]	apoptotic cell death [4]	apoptotic cell death (DU145 cells)	apoptotic cell death (PC3 cells)	cytotoxic effect (MTT cell viability) [5]	cytotoxic effect (MTT cell viability) ([5]; listed as Ptxl)	apoptotic cell death (LNCaP cells)
CC(=O)O[C@H]1C(=O)[C@@]2(C)[C@H]([C@H](OC(=O)c3ccccc3)[C@]3(O)C[C@H](OC(=O)[C@H](O)[C@@H](NC(=O)c4ccccc4)c4ccccc4)C(C)=C1C3(C)C)[C@]1(OC(C)=O)CO[C@@H]1C[C@@H]2O [paclitaxel, reference compound]	significantly induced time-dependent cytotoxicity	less susceptible	significantly induced time-dependent cytotoxicity	most toxic	52%	significantly induced time-dependent cytotoxicity	induced apoptotic cell death	induced apoptotic cell death	induced apoptotic cell death	significantly induced time-dependent cytotoxicity	less susceptible	induced apoptotic cell death
CSCC[C@H](NC(=O)CNC(=O)[C@H](CC(=O)O)NC(=O)[C@@H](NC(=O)[C@@H](NC(=O)[C@@H](NC(=O)CNC(=O)[C@H](CCC(N)=O)NC(=O)[C@H](CCSC)NC(=O)[C@H](CC(=O)O)NC(=O)[C@H](C)NC(=O)[C@H](C)NC(=O)[C@@H](NC(=O)[C@H](CO)NC(=O)[C@@H](N)CC(C)C)[C@@H](C)O)C(C)C)C(C)C)[C@@H](C)O)C(=O)N[C@@H](C)C(=O)N[C@@H](CO)C(=O)NCC(=O)N[C@@H](CC(C)C)C(=O)N[C@@H](CC(=O)O)C(=O)N[C@@H](CCCCN)C(=O)N[C@@H](CC(=O)O)C(=O)N[C@@H](Cc1ccc(O)cc1)C(=O)N[C@@H](CC(C)C)C(=O)N[C@@H](CCCCN)C(=O)N1CCC[C@H]1C(=O)N[C@@H](CC(=O)O)C(=O)N[C@@H](CC(=O)O)C(=O)O [p28, LST AAD MQG VVT DGM ASG LDK DYL KPDD, reference compound]	but not p53-null PC3 cells		but not p53-null PC3 cells or normal CRL11611 cells			dose-dependent effect				dose-dependent effect		
